Patent US7718653B2, “Pyrimidine derivatives for inhibiting Eph receptors” (AstraZeneca AB, priority 2007, dated 2010)

Target: T1, recombinant EphB4 (Homo sapiens, UniProt P54760)
T1 construct: amino acids 563-987; Swiss-Prot Acc; No. P54760; purchased ProQinase GmbH 0178-0000-3
T1 sequence (P54760 563-987): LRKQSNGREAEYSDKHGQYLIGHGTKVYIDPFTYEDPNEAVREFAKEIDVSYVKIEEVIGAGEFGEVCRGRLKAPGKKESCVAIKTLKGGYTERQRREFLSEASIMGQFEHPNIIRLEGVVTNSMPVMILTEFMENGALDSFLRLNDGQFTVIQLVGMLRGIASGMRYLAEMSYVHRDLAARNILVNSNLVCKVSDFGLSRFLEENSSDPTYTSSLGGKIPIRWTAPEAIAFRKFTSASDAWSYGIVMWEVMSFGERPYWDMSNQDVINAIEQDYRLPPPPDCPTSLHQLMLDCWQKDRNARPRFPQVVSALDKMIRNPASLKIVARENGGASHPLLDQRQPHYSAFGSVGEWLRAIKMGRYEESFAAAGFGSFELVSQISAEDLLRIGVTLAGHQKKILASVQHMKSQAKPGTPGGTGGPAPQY
Test: In vitro EphB4 enzyme assay (Alphascreen, phosphorylation of biotin-poly-GAT)
Type: biochemical
Details: method of compound preparation not stated; read-out: IC50 in assay A
Protocol: A) In vitro EphB4 Enzyme Assay
This assay detects inhibitors of EphB4-mediated phosphorylation of a polypeptide substrate using Alphascreen™ luminescence detection technology. Briefly, recombinant EphB4 was incubated with a biotinylated-polypeptide substrate (biotin-poly-GAT) in presence of magnesium-ATP. The reaction was stopped by addition of EDTA, together with streptavidin-coated donor beads which bind the biotin-substrate containing any phosphorylated tyrosine residues. Anti-phosphotyrosine antibodies present on acceptor beads bind to phosphorylated substrate, thus bringing the donor & acceptor beads into close proximity. Subsequent excitation of the donor beads at 680 nm generated singlet oxygen species that interact with a chemiluminescer on the acceptor beads, leading to light emission at 520-620 nm. The signal intensity is directly proportional to the level of substrate phosphorylation and thus inhibition is measured by a decrease in signal.
Aqueous Compound Preparation:
Acoustic Compound Preparation:
To ensure that each well contained a total of 120 nl DMSO the wells were all backfilled as required. […] The test range of compounds was 100× the required final concentration.
Assay plates were then incubated at room temperature for 1 hour.
For assays using compounds prepared via acoustic dispensing, the assay mix was adjusted such that the final assay volume of 12 ul contained the same concentration of reagent as 10 ul of assay mix used when aqueous compounds were tested.
The plates were sealed under natural lighting conditions, wrapped in aluminium foil and incubated in the dark for a further 20 hours.
The resulting assay signal was determined on the Perkin Elmer EnVision plate reader. The minimum value was subtracted from all values, and the signal plotted against compound concentration to generate IC50 data. The method used to generate the compound dilutions was recorded with the IC50 value in the database.

`c1cc(Nc2ccnc(Nc3cc(N4CCOCC4)nc(N4CCOCC4)c3)n2)c2cn[nH]c2c1` [Example 3, N2-(2,6-dimorpholinopyridin-4-yl)-N4-(1H-indazol-4-yl)pyrimidine-2,4-diamine] was tested, and the IC50 was 243 nM.
